Row | SMILES | melting point [°C]
1 | N#Cc1ccc(-c2cncc(O[C@@H]3SC[C@@H](O)[C@H](O)[C@H]3O)c2)cc1Cl | 202 to 204
2 | O[C@@H]1[C@@H](O)[C@H](Oc2cccnc2-c2ccccc2)SC[C@H]1O [Example 24, 2-phenyl-3-pyridinyl 5-thio-β-D-xylopyranoside] | 89 to 108
3 | O[C@@H]1[C@@H](O)[C@H](Oc2cncc(Oc3ccccc3)c2)SC[C@H]1O [Example 26, 5-phenoxy-3-pyridinyl 5-thio-β-D-xylopyranoside] | 226
4 | N#Cc1ccc(-c2ccncc2O[C@@H]2SC[C@@H](O)[C@H](O)[C@H]2O)cc1 [Example 28, 4-(4-cyanophenyl)-3-pyridinyl 5-thio-β-D-xylopyranoside] | 238
5 | O[C@@H]1[C@@H](O)[C@H](Oc2cncc(-c3ccc(N4CCCCC4)cc3)c2)SC[C@H]1O [Example 48, 5-[4-(1-piperidinyl)phenyl]-3-pyridinyl 5-thio-β-D-xylopyranoside] | 196
6 | CN(C)c1ccc(-c2cncc(O[C@@H]3SC[C@@H](O)[C@H](O)[C@H]3O)c2)cc1 [Example 50, 5-[4-(dimethylamino)phenyl]-3-pyridinyl 5-thio-β-D-xylopyranoside] | 240
7 | Cc1ccc(-c2cncc(O[C@@H]3SC[C@@H](O)[C@H](O)[C@H]3O)c2)cc1 [Example 52, 5-(4-methylphenyl)-3-pyridinyl 5-thio-β-D-xylopyranoside] | 228
8 | N#Cc1cccc(-c2cncc(O[C@@H]3SC[C@@H](O)[C@H](O)[C@H]3O)c2)c1 [Example 55, 5-(3-cyanophenyl)-3-pyridinyl 5-thio-β-D-xylopyranoside] | 172
9 | O[C@@H]1[C@@H](O)[C@H](Oc2cnccc2-c2ccc(F)cc2)SC[C@H]1O [Example 57, 4-(4-fluorophenyl)-3-pyridinyl 5-thio-β-D-xylopyranoside] | 219
10 | N#Cc1cc(-c2cncc(O[C@@H]3SC[C@@H](O)[C@H](O)[C@H]3O)c2)ccc1F [Example 63, 5-(3-cyano-4-fluorophenyl)-3-pyridinyl 5-thio-β-D-xylopyranoside] | 197
11 | COc1ccc(-c2cncc(O[C@@H]3SC[C@@H](O)[C@H](O)[C@H]3O)c2)cc1Cl [Example 65, 5-(3-chloro-4-methoxyphenyl)-3-pyridinyl 5-thio-β-D-xylopyranoside] | 165
12 | COc1cccc(-c2cncc(O[C@@H]3SC[C@@H](O)[C@H](O)[C@H]3O)c2)c1 [Example 67, 5-(3-methoxyphenyl)-3-pyridinyl 5-thio-β-D-xylopyranoside] | 200
13 | CC(C)Oc1ccc(-c2cncc(O[C@@H]3SC[C@@H](O)[C@H](O)[C@H]3O)c2)cc1 [Example 69, 5-[4-(1-methylethoxy)phenyl]-3-pyridinyl 5-thio-β-D-xylopyranoside] | 158
14 | COc1ccc(-c2cncc(O[C@@H]3SC[C@@H](O)[C@H](O)[C@H]3O)c2)cc1OC [Example 71, 5-(3,4-dimethoxyphenyl)-3-pyridinyl 5-thio-β-D-xylopyranoside] | 211
15 | O[C@@H]1[C@@H](O)[C@H](Oc2cccnc2-c2ccc(F)cc2)SC[C@H]1O [Example 73, 2-(4-fluorophenyl)-3-pyridinyl 5-thio-β-D-xylopyranoside] | 110
16 | COc1ccc(-c2nccc(C)c2O[C@@H]2SC[C@@H](O)[C@H](O)[C@H]2O)cc1 [Example 75, 2-(4-methoxyphenyl)-4-methyl-3-pyridinyl 5-thio-β-D-xylopyranoside] | 101
17 | COc1ccc(-c2cc(O[C@@H]3SC[C@@H](O)[C@H](O)[C@H]3O)ccn2)cc1 [Example 77, 2-(4-methoxyphenyl)-4-pyridinyl 5-thio-β-D-xylopyranoside] | 150 to 154
18 | COc1cc(F)c(-c2cncc(O[C@@H]3SC[C@@H](O)[C@H](O)[C@H]3O)c2)c(F)c1 [Example 81, 5-(2,6-difluoro-4-methoxyphenyl)-3-pyridinyl 5-thio-β-D-xylopyranoside] | 200
19 | COc1c(C)cc(-c2cncc(O[C@@H]3SC[C@@H](O)[C@H](O)[C@H]3O)c2)cc1C [Example 83, 5-(3,5-dimethyl-4-methoxyphenyl)-3-pyridinyl 5-thio-β-D-xylopyranoside] | 173
20 | O[C@@H]1[C@@H](O)[C@H](Oc2cncc(-c3ccc(F)cc3F)c2)SC[C@H]1O [Example 85, 5-(2,4-difluorophenyl)-3-pyridinyl 5-thio-β-D-xylopyranoside] | 221
21 | COc1cc(F)ccc1-c1cncc(O[C@@H]2SC[C@@H](O)[C@H](O)[C@H]2O)c1 [Example 87, 5-(4-fluoro-2-methoxyphenyl)-3-pyridinyl 5-thio-β-D-xylopyranoside] | 218 to 228
22 | N#Cc1ccc(-c2cncc(O[C@@H]3SC[C@@H](O)[C@H](O)[C@H]3O)c2)cc1F [Example 91, 5-(4-cyano-3-fluorophenyl)-3-pyridinyl 5-thio-β-D-xylopyranoside] | 214
23 | COc1ccc(-c2ccc(O[C@@H]3SC[C@@H](O)[C@H](O)[C@H]3O)cn2)cc1 [Example 93, 6-(4-methoxyphenyl)-3-pyridinyl 5-thio-β-D-xylopyranoside] | 164
24 | OCc1ccc(-c2ccc(O[C@@H]3SC[C@@H](O)[C@H](O)[C@H]3O)cn2)cc1 [Example 95, 6-[4-(hydroxymethyl)phenyl]-3-pyridinyl 5-thio-β-D-xylopyranoside] | 215
25 | COc1ccc(-c2cncc(O[C@@H]3SC[C@@H](O)[C@H](O)[C@H]3O)c2)c(C)c1 [Example 105, 5-(4-methoxy-2-methylphenyl)-3-pyridinyl 5-thio-β-D-xylopyranoside] | 231
26 | Cc1ccc(-c2cncc(O[C@@H]3SC[C@@H](O)[C@H](O)[C@H]3O)c2)cc1F [Example 107, 5-(3-fluoro-4-methylphenyl)-3-pyridinyl 5-thio-β-D-xylopyranoside] | 213
27 | Cc1ccc(-c2cncc(O[C@@H]3SC[C@@H](O)[C@H](O)[C@H]3O)c2)cc1C [Example 109, 5-(3,4-dimethylphenyl)-3-pyridinyl 5-thio-β-D-xylopyranoside] | 184

Other lines, results leading:

Row | melting point [°C] | SMILES
28 | 207 | Cc1ccc(-c2cncc(O[C@@H]3SC[C@@H](O)[C@H](O)[C@H]3O)c2)c(Cl)c1 [Example 111, 5-(2-chloro-4-methylphenyl)-3-pyridinyl 5-thio-β-D-xylopyranoside]
29 | 218 | COc1ccc(-c2cncc(O[C@@H]3SC[C@@H](O)[C@H](O)[C@H]3O)c2)c(Cl)c1 [Example 113, 5-(2-chloro-4-methoxyphenyl)-3-pyridinyl 5-thio-β-D-xylopyranoside]
30 | 193 | CC(=O)O[C@@H]1[C@@H](OC(C)=O)[C@H](OC(C)=O)CS[C@H]1Oc1cncc(S(C)(=O)=O)c1 [Example 114, 5-methylsulfonyl-3-pyridinyl 2,3,4-tri-O-acetyl-5-thio-β-D-xylopyranoside]
31 | 183 | CS(=O)(=O)c1cncc(O[C@@H]2SC[C@@H](O)[C@H](O)[C@H]2O)c1 [Example 115, 5-methylsulfonyl-3-pyridinyl 5-thio-β-D-xylopyranoside]
32 | 89 to 91 | O=C(NCc1ccccc1)c1ccc(O[C@@H]2SC[C@@H](O)[C@H](O)[C@H]2O)cn1 [Example 117, 6-{[(phenylmethyl)amino]carbonyl}-3-pyridinyl 5-thio-β-D-xylopyranoside]
33 | 157 | CC(=O)O[C@@H]1[C@@H](OC(C)=O)[C@H](OC(C)=O)CS[C@H]1Oc1cncc(C(C)=O)c1 [Example 118, 5-acetyl-3-pyridinyl 2,3,4-tri-O-acetyl-5-thio-β-D-xylopyranoside]
34 | 159 to 163 | CC(=O)c1cccc(-c2ccc(O[C@@H]3SC[C@@H](O)[C@H](O)[C@H]3O)cn2)c1 [Example 124, 6-(3-acetylphenyl)-3-pyridinyl 5-thio-β-D-xylopyranoside]
35 | 184 to 186 | O[C@@H]1[C@@H](O)[C@H](Oc2ccc(-c3ccc(OC(F)(F)F)cc3)nc2)SC[C@H]1O [Example 125, 6-[4-(trifluoromethoxy)phenyl]-3-pyridinyl 5-thio-β-D-xylopyranoside]
36 | 114 to 119 | O[C@@H]1[C@@H](O)[C@H](Oc2cccnc2-c2ccc(OC(F)(F)F)cc2)SC[C@H]1O [Example 127, 2-[4-(trifluoromethoxy)phenyl]-3-pyridinyl 5-thio-β-D-xylopyranoside]
37 | 128 to 133 | CC(=O)c1cccc(-c2ncccc2O[C@@H]2SC[C@@H](O)[C@H](O)[C@H]2O)c1 [Example 128, 2-(3-acetylphenyl)-3-pyridinyl 5-thio-β-D-xylopyranoside]
38 | 180 to 183 | O[C@@H]1[C@@H](O)[C@H](Oc2ccc(-c3ccc(F)cc3)nc2)SC[C@H]1O [Example 129, 6-(4-fluorophenyl)-3-pyridinyl 5-thio-β-D-xylopyranoside]
39 | 86 | O=S(=O)(c1ccccc1)c1cncc(O[C@@H]2SC[C@@H](O)[C@H](O)[C@H]2O)c1 [Example 140, 5-(phenylsulfonyl)-3-pyridinyl 5-thio-β-D-xylopyranoside]
40 | 93 to 96 | O=S(=O)(c1ccc(F)cc1)c1cncc(O[C@@H]2SC[C@@H](O)[C@H](O)[C@H]2O)c1 [Example 142, 5-[(4-fluorophenyl)sulfonyl]-3-pyridinyl 5-thio-β-D-xylopyranoside]
41 | 228 | O[C@@H]1[C@@H](O)[C@H](Oc2cncc(-c3c(F)cc(F)cc3F)c2)SC[C@H]1O [Example 144, 5-(2,4,6-trifluorophenyl)-3-pyridinyl 5-thio-β-D-xylopyranoside]
42 | 203 | COc1c(F)cc(-c2cncc(O[C@@H]3SC[C@@H](O)[C@H](O)[C@H]3O)c2)cc1F [Example 146, 5-(3,5-difluoro-4-methoxyphenyl)-3-pyridinyl 5-thio-β-D-xylopyranoside]
43 | 198 to 200 | N#Cc1cc(F)ccc1-c1cncc(O[C@@H]2SC[C@@H](O)[C@H](O)[C@H]2O)c1 [Example 148, 5-(2-cyano-4-fluorophenyl)-3-pyridinyl 5-thio-β-D-xylopyranoside]

Source: patent US8148407B2, “Compounds derived from 5-thioxylose and their use in therapeutics” (Laboratories Fournier S.A., priority 2005, dated 2012)
